The record followed here is ChEMBL document CHEMBL1127928, “Macrolide-type motilin receptor agonists: Assessment of the biological value of the 2- and 4-hydroxyl groups of acid-stable 8,9-anhydroerythromycin A 6,9-hemiacetals” (Bioorg Med Chem Lett, 1994).

Assay [1] has as its system Canis familiaris. The experiment in a line: In vivo contractile activity in the gastric antrum and the small intestine in fasted conscious dogs upon intravenous administration was determined. The assay is classed as functional, Canis lupus familiaris.
For another assay, the species on record is Oryctolagus cuniculus. In words: In vitro contractile activity was measured in the rabbit duodenum preparation. The assay is classed as functional.
Assay [2] addresses T1, Motilin receptor (Oryctolagus cuniculus, UniProt A5A4K8). In words: In vitro binding affinity towards motilin receptor was determined in rabbit small intestinal smooth muscle tissue homogenate. It is filed as tissue-based.
Another assay has as its system Klebsiella pneumoniae. In words: Tested for antimicrobial activity against Klebsiella pneumoniae IFO 3512. It is filed as functional.
In assay [3] the test system is Canis familiaris. In words: In vivo contractile activity in the gastric antrum and the small intestine in fasted conscious dogs upon intragastric administration was determined. It is filed as functional, Canis lupus familiaris.
The subject of another assay is Staphylococcus aureus. In words: Tested for antimicrobial activity against Staphylococcus aureus 209P. The assay is classed as functional.
The subject of the next assay is Bacillus subtilis. The experiment in a line: Tested for antimicrobial activity against Bacillus subtilis ATCC 6633. The assay is classed as functional.
The target of assay [4] is T1, Motilin receptor. In words: In vitro binding affinity towards motilin receptor was determined after treatment with hydrochloric acid in rabbit small intestinal smooth muscle tissue homogenate. It is filed as tissue-based.
The subject of a further assay is Streptococcus pneumoniae. In words: Tested for antimicrobial activity against Streptococcus pneumoniae No. 12. The assay is classed as functional.

Values after ≈ are worked out from the molar mass of the structure shown.

T1 sequence (A5A4K8 whole entry): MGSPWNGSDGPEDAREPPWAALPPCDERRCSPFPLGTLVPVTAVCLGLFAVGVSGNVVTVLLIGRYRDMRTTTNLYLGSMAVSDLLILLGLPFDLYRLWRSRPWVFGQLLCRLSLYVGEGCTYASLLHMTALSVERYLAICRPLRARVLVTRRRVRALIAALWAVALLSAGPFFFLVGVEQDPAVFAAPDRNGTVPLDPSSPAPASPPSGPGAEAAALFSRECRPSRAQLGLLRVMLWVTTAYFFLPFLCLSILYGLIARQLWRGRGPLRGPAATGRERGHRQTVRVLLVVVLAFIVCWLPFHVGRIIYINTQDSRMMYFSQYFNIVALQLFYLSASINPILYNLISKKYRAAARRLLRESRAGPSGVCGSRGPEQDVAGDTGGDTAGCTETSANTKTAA

In general, EC50 refers to the concentration needed to bring the measured effect to its halfway point. High values mean a need for much substance, low ones an effect from little substance. Usually IC50 stands for the point on the concentration scale where inhibition reaches its midpoint. In turn, `CCC1OC(=O)C(C)C(O[C@H]2C[C@@](C)(OC)CC(C)O2)C(C)[C@@H](OC2CC(N(C)C(C)C)CC(C)O2)[C@]2(C)CC(C)=C(O2)[C@H](C)C(=O)[C@]1(C)OC` (some centres undefined) had an MI100 with Canis familiaris [1] of more than 70 µg/kg. For the same compound, the EC50 in the assay filed under Oryctolagus cuniculus is 209 nM. In addition, the IC50 at Motilin receptor [2] was 1.86 nM.
Broadly, the MIC is the least concentration at which growth counts as inhibited. As to `CCC1OC(=O)C(C)C(O[C@H]2C[C@@](C)(OC)CC(C)O2)C(C)[C@@H](OC2OC(C)CC(N(C)C)[C@H]2O)[C@]2(C)CC(C)=C(O2)[C@H](C)C(=O)[C@]1(C)OC` (some centres undefined), the minimal inhibitory concentration (MIC) against Klebsiella pneumoniae is 100 µg/mL (≈ 140 µM); in the assay with Staphylococcus aureus, 100 µg/mL (≈ 140 µM); with Bacillus subtilis it was 50 µg/mL (≈ 70.2 µM); in the assay with Streptococcus pneumoniae (read-out: MIC), 1600 µM. In addition, the MI100 in the assay on Canis familiaris [3] came out at 1.2 µg/kg; in the assay on Canis familiaris [1], 0.4 µg/kg. In addition, the IC50 at Motilin receptor [4] was 3.89 nM; on Motilin receptor [2], 2.29 nM. In addition, a half-maximal effect in the assay filed under Oryctolagus cuniculus (EC50) was put at 10.5 nM.
As for `CCC1OC(=O)C(C)C(O[C@H]2C[C@@](C)(OC)CC(C)O2)C(C)[C@@H](OC2OC(C)CC(N(C)C(C)C)[C@H]2O)[C@]2(C)CC(C)=C(O2)[C@H](C)C(=O)[C@]1(C)OC` (some centres undefined), the MI100 in the assay on Canis familiaris [3] stood at 0.3 µg/kg; with Canis familiaris [1], 0.09 µg/kg. Also, the IC50 at Motilin receptor [4] is 1.78 nM; on Motilin receptor [2], 2.51 nM. The response in the assay filed under Oryctolagus cuniculus was half-maximal at 6.17 nM (EC50). The MIC against Streptococcus pneumoniae was found to be 100 µg/mL.
Turning to `CCC1OC(=O)C(C)C(O[C@H]2C[C@@](C)(OC)CC(C)O2)C(C)[C@@H](OC2OC(C)CC(N(C)CC)[C@H]2O)[C@]2(C)CC(C)=C(O2)[C@H](C)C(=O)[C@]1(C)OC` (some centres undefined), the MI100 came to 0.2 µg/kg in the assay on Canis familiaris [3] and 0.3 µg/kg in the assay with Canis familiaris [1]. Besides, the IC50 is 3.8 nM on Motilin receptor [4] and 3.47 nM at Motilin receptor [2]. Further, in the assay filed under Oryctolagus cuniculus, the EC50 was 9.12 nM. The compound further showed an MIC in the assay with Streptococcus pneumoniae of 100 µg/mL.
